The values below come from patent publication US20110229415A1, “SEMI-SYNTHETIC ANTIBODIES AS RECOGNITION ELEMENTS” (priority 2007, published 2011).

pKd: −log10 of the molar value.

Type in all cases: binding
Test [1] deals with mouse anti-human IL-6 antibody. As to the kind of experiment: Determination of KD by competitive labeling with 2-N3ATP [γ 32P] and 2-N3ATP-fluorophore. As to conditions: competition with 30 μM 2-N3ATP [γ 32P], 2 μg antibody, photolysis; read-out: apparent KD. As to the method:
Determination of KD of the monoclonal antibody for 2-N3ATP-fluorophore. Competitive labeling of the mouse anti-human IL-6 antibody with 2-N3ATP [γ ^32P] and 2-N3ATP-fluorophore was done. 30 μM 2-N3ATP [γ ^32P] and 2 μg of the antibody was added to each 10 μM, 20 μM, 40 μM, 60 μM, 80 μM, 100 μM and 120 μM of 2-N3ATP-fluorophore tube and incubated for 20 min on ice. The tubes were then photolyzed for 1 min 15 s. The reaction was quenched by adding 5 μl of 0.25 mg/ml cysteine and analyzed by SDS/PAGE and autoradiography.

Test [2] deals with Mouse anti-Human IL-6 monoclonal antibody. The test is described as follows: Selecting the photoaffinity probe: photolabeling of antibody with radioactive nucleotide probes, SDS PAGE/autoradiography. The conditions noted are these: IL-6 antibody, 300 μM of each probe, pH 4.0. As to the method:
Selecting the photoaffinity probe. Two radioactive nucleotide probes, [γ-^32P]8-N3ATP and [γ-^32P]2-N3ATP were tested towards their reactivity with Mouse anti-Human IL-6 monoclonal antibody. For the labeling procedure 8 μg antibody was incubated with 300 μM of each probe in two different tubes in a final volume of 62 μl for 10 min on ice. The buffer used was 100 mM BTP at pH 4.0. After 10 min incubation the two tubes were photolyzed with a hand held UV lamp at 254 nm for 2 min and the reaction mixture was agitated in between to prevent local heating. The reaction was quenched by adding 12 μl of loading dye, PSM (5×) and heating it in a water bath for 5 min. The reaction products were then analyzed by SDS PAGE. ^32P incorporation was detected by autoradiography.

Test [3] relates to mAb against Osteonectin. As to the kind of experiment: Labeling of mAb against Osteonectin with radioactive probes. As to the method: 2N3ATP versus [γ^32P] 8N3ATP. Lanes A and D have […] have 10 μL, and C and F have 15 μL of the labeled antibody. [γ^32P] 2N3ATP labels the antibody better than [γ^32P] 8N3ATP.
Test [4] deals with Mouse anti-Human IL-6 monoclonal antibody. The test is described as follows: Saturation of labeling of antibody with photoreactive probe. As to conditions: 2 μg antibody, increasing probe concentrations, photolysis at 254 nm. As to the method: Saturation of labeling. 2 μg of Mouse anti-Human IL-6 monoclonal antibody was incubated with increasing concentrations of [γ-^32P]2-N3ATP for 20 min on ice and photolyzed with a hand held lamp at 254 nm for 1 min 15 sec. The reaction was quenched by adding 5 μl of 0.25 mg/ml cysteine and analyzed by SDS/PAGE and autoradiography.

As to 2-N3ATP-Alexa Fluor 594 cadaverine, the pKd in test [1] is around 4.77.

Take `[N-]=[N+]=Nc1nc(N)c2ncn([C@@H]3O[C@H](COP(=O)(O)OP(=O)(O)OP(=O)(O)O)[C@@H](O)[C@H]3O)c2n1` [2-N3ATP, 2-azido ATP]: the results for the “labeling of the antibody, compared with the 8-azido probe” value in test [2] and in test [3] were “greater efficiency as compared to 8-N3ATP” and “greater efficiency as compared to 8-azido ATP”, respectively.

As to `[N-]=[N+]=Nc1nc(N)c2ncn([C@@H]3O[C@H](COP(=O)(O)OP(=O)(O)O[32P](=O)(O)O)[C@@H](O)[C@H]3O)c2n1` [[γ-^32P]-2-N3ATP], the “labeling of the antibody, compared with the 8-azido probe” value in test [2] is “better than [γ-^32P]-8-N3ATP”; in test [3] it was “better than [γ^32P] 8N3ATP”. Further, in test [4], the “saturation of photolabeling (probe concentration)” value is ~25 ΞM.

As usually defined, the pKd is the Kd on a negative log10 scale, so that one unit is a factor of ten.
